Laboratory results as given in PubChem BioAssay (NCI).
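Each compound was tested at five concentrations against cells in 96-well plates for 48 hours. Abbreviation: GI50, concentration required for 50% inhibition of growth. The concentration for full growth arrest is given as TGI.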

What was measured:
Experiment in all cases: growth of human tumour cells (NCI), 48 h
HS 578T breast = system: HS 578T breast
A549 NSCLC = system: A549 NSCLC
SF-268 CNS = system: SF-268 CNS
NCI-H522 lung = system: NCI-H522 lung
HOP-62 NSCLC = system: HOP-62 NSCLC
MALME-3M melanoma = system: MALME-3M melanoma
MOLT-4 leukemia = system: MOLT-4 leukemia
BT-549 breast = system: BT-549 breast
CAKI-1 renal = system: CAKI-1 renal
NCI-H226 lung = system: NCI-H226 lung

Row | SMILES | GI50 (HS 578T breast) [µM] | TGI (HS 578T breast) [µM] | GI50 (A549 NSCLC) [µM] | TGI (A549 NSCLC) [µM] | GI50 (SF-268 CNS) [µM] | TGI (SF-268 CNS) [µM] | GI50 (NCI-H522 lung) [µM] | TGI (NCI-H522 lung) [µM] | GI50 (HOP-62 NSCLC) [µM] | TGI (HOP-62 NSCLC) [µM] | GI50 (MALME-3M melanoma) [µM] | TGI (MALME-3M melanoma) [µM] | GI50 (MOLT-4 leukemia) [µM] | TGI (MOLT-4 leukemia) [µM] | GI50 (BT-549 breast) [µM] | TGI (BT-549 breast) [µM] | GI50 (CAKI-1 renal) [µM] | TGI (CAKI-1 renal) [µM] | TGI (NCI-H226 lung) [µM] | GI50 (NCI-H226 lung) [µM]
1 | Cc1ccc(Nn2c(SCC(=O)Nc3nc(-c4ccccc4)cs3)nc(C)c2C)cc1 | 34.1 | > 100 | 3.03 | > 100 | 9.1 | > 100 | 2.97 | 86.8 | 18.4 | > 100 | 2.48 | 13.6 | 3.46 | > 100 | 3.18 | 14.1 | 1.86 | 6.1 | – | –
2 | CCCCCC/C=C\CCCCCCCCCc1cccc(OC)c1O | – | > 100 | – | > 100 | – | > 100 | – | > 100 | – | > 100 | – | > 100 | – | > 100 | – | > 100 | – | > 100 | > 100 | –
3 | COc1cc2c3c(n(CCCN=[N+]=[N-])c(=O)c2cc1OC)-c1ccc(NC(C)=O)cc1C3=O | > 50 | > 50 | > 50 | > 50 | > 50 | > 50 | > 50 | > 50 | > 50 | > 50 | > 50 | > 50 | – | – | > 50 | > 50 | 8.39 | > 50 | > 50 | > 50
4 | COc1ccccc1C(=O)Nc1ccc(Cl)c(C(=O)OC(C)C)c1 | – | > 100 | – | > 100 | – | > 95.2 | – | > 81.4 | – | > 100 | – | > 100 | – | > 76.5 | – | > 100 | – | > 100 | > 100 | –
5 | O=C(Oc1c(Cl)c(Cl)c(Cl)c(Cl)c1Cl)C1CCCN1C(=O)OCc1ccccc1 (stereo not drawn) | 2.92 | 10.4 | 3.97 | 18.2 | 4 | 15.6 | 2.47 | 6.84 | 3.45 | 14.9 | 3.62 | 11.4 | 3.1 | 9.07 | 3.75 | 13.1 | 2.8 | 8.52 | 21.7 | 3.82
6 | Cn1c(=S)c2[nH]c(SCc3cccnc3)nc2n(C)c1=O | – | > 100 | – | > 100 | – | > 100 | – | > 100 | – | > 100 | – | > 100 | – | > 100 | – | > 100 | – | > 100 | > 100 | –
7 | CCN(CC)CCC(CNc1c(C)cnc2cc(Cl)ccc12)c1ccc(Cl)c(Cl)c1 (stereo not drawn) | 4.26 | 23.1 | 8.21 | 22 | 8.3 | 23.8 | 3.78 | 16 | 4.69 | 17.6 | 1.88 | 3.5 | 2.88 | 10.1 | 8.2 | 21.3 | 2.59 | 11.5 | 30.8 | 13.5
8 | COc1ccc(C(=O)c2cc(C)c(OC)c(C)c2)c(OC)c1OC(=O)C(Cl)Cl | 0.0294 | 73.4 | 0.361 | > 100 | 0.198 | > 100 | 0.0286 | 1.2 | 0.221 | > 100 | 0.0714 | > 100 | 0.0436 | > 100 | 0.0293 | 1.7 | 0.338 | > 100 | 7.03 | 2.41
9 | NC1=C(/C(N)=N/O)C(c2ccccc2)c2ccc3ccccc3c2O1 (stereo not drawn) | 0.276 | > 77.6 | 0.617 | > 100 | 1.09 | > 72.6 | 0.145 | 26.7 | 0.524 | > 100 | 2.29 | > 76.1 | 0.496 | > 100 | 1.11 | 69.6 | 0.192 | 42.3 | 77.1 | 8.01
10 | CC(=O)OCCC/C(=C/c1cc2ccccc2c2ccccc12)[N+](=O)[O-] | 2.47 | > 23.1 | 1.84 | 3.74 | 1.47 | 2.89 | 0.252 | 0.981 | 1.91 | 3.5 | 1.55 | 3.38 | 2.86 | > 23 | 1.56 | 3.26 | 1.21 | 2.51 | 5.63 | 2.04
11 | COc1cc(NC(=O)c2cc3ccccc3cc2O)c(OC)cc1Cl | 2.11 | 8.85 | 2.46 | 7.47 | 3.42 | 14.4 | 1.89 | 9.41 | 1.44 | 4.7 | 0.335 | 2.87 | 2.27 | – | 1.65 | 5.05 | – | 3.76 | 6.04 | 1.45
12 | COC(=O)[C@]12CC[C@@H](C)[C@H](C)[C@@H]1C1=CC[C@@H]3[C@@]4(C)C(C=O)=C[C@@](C)(COC(=O)c5ccco5)C4=CC[C@@]3(C)[C@]1(C)CC2 | 3.72 | 34.1 | 3.28 | 14 | 2.93 | 9.92 | 3.31 | 10.9 | 3.4 | 13.6 | 0.0383 | 0.444 | 2.11 | 7.1 | 4.93 | 32.4 | 3.32 | 25.2 | 7.79 | 2.33
13 | COc1ccc(-n2nc(C(=O)NCC(=O)Nc3nc4cc(OC)ccc4s3)c3ccccc3c2=O)cc1 | 2.54 | > 100 | 0.349 | 1.51 | 0.949 | 5.01 | 1.69 | 7.99 | 0.663 | 2.07 | 0.589 | 2.8 | > 100 | > 100 | 3.04 | 25.9 | 0.366 | 2.99 | 7.5 | 1.48
14 | COc1cc(-c2cn(-c3ccc(F)cc3)c(=O)[nH]2)cc(OC)c1OC | 50.9 | > 100 | > 100 | > 100 | > 100 | > 100 | > 100 | > 100 | 45 | > 100 | > 100 | > 100 | > 100 | > 100 | > 100 | > 100 | > 100 | > 100 | > 100 | > 100
15 | COC(=O)C(Br)(C(=O)OC)C(Br)C(Br)C(Br)c1ccccc1 (stereo not drawn) | 6.25 | 15 | 16.9 | 33 | 5.5 | 16.5 | 0.573 | 1.53 | 6.31 | 15.7 | 2.09 | 4.46 | 4.24 | 19.7 | 12.4 | 25.3 | 1.76 | 3.73 | 5.71 | 2.19
16 | CCCCc1n(Cc2ccc3ccccc3n2)cc[n+]1Cc1ccc2ccccc2c1 | 1.33 | 4.07 | 1.69 | 11 | 0.984 | 2.92 | 0.58 | 2.18 | 1.72 | 5.25 | 0.643 | 2.21 | 1.06 | 3.61 | 0.648 | 1.74 | 1.62 | 3.64 | 6.12 | 1
17 | CCN1C(=O)N[C@H]2[C@@H]3NC(=O)c4ccc(Cl)n4[C@@H]3C[C@]21O | 0.578 | 13.2 | 1.74 | 17.6 | 0.502 | 52.3 | 0.288 | 1.76 | 0.466 | 3.71 | 0.653 | 4.66 | 0.346 | 2.37 | 0.41 | 4.29 | 2.87 | > 100 | 5.7 | 0.543
18 | CCN1Cc2c(/C=C/c3ccccc3)nc3ccc(OC)cc3c2N(c2cccc(Cl)c2)C1 | 1.75 | 4.88 | 1.99 | 3.96 | 1.87 | 3.67 | 1.4 | 2.88 | 1.64 | 3.09 | 1.68 | 3.52 | 1.45 | 5.02 | 5.73 | 23 | 1.51 | 3.57 | 3.5 | 1.65
19 | C=C(C)C1Cc2cc(C(C)=O)ccc2O1 (stereo not drawn) | – | > 100 | – | > 100 | – | > 100 | – | > 100 | – | – | – | > 100 | – | > 100 | – | > 100 | – | > 100 | > 100 | –
20 | C#CCn1c2c(c3ccccc3c1=O)C(=O)c1ccccc1-2 | – | 34.8 | – | 57.3 | – | 34.1 | – | 42.2 | – | 24.1 | – | > 100 | – | > 100 | – | > 100 | – | 24.3 | 79.3 | –
21 | NCCNc1nc2ccc(F)cc2c2c(=O)c3cc(F)ccc3sc12 | 3.21 | 18.4 | 1.73 | 3.38 | 1.62 | 4.47 | 1.73 | 3.38 | 1.39 | 2.87 | 1.91 | 4.28 | 1.94 | 3.92 | 9.72 | 24.1 | 1.08 | 2.78 | – | –
22 | COc1ccc(-c2cncn2-c2ccc(-c3nc4cc(OC)c(OC)c(OC)c4s3)cc2)cc1N | 28.3 | > 100 | 5.77 | > 100 | 47 | > 100 | 3.37 | 17.5 | – | – | 2.48 | 9.97 | 4 | > 100 | 6.21 | > 100 | 4.82 | > 100 | > 100 | 6.7
23 | O=C(O)c1ccccc1C(=O)Nc1cc2c(cc1Br)-c1ccccc1C2=O | – | > 100 | – | > 100 | – | > 100 | – | > 100 | – | > 100 | – | > 100 | – | > 100 | – | > 100 | – | > 100 | – | –
24 | Clc1ccc2c(NCCNc3nc(N4CCCCC4)nc4ccccc34)ccnc2c1 | 3.04 | 8.39 | 2.16 | 9.87 | 2.39 | 7.33 | 1.75 | 3.85 | 2.62 | 8.84 | 2.05 | 4.05 | 2.29 | 11.8 | 2.01 | 4.68 | – | – | 4.05 | 1.92
25 | Nc1ncc(-c2ccc3ncnc(N4CCc5cc(F)c(Cl)cc54)c3c2)cc1C(F)(F)F | 0.298 | 2.54 | 1.56 | > 100 | 1.24 | > 100 | 2.01 | > 100 | 3.18 | > 100 | 1.44 | > 100 | 2.13 | > 100 | 1.07 | 8.33 | – | – | – | –
26 | COc1ccccc1CNC(=O)/C=C/c1ccc(O)c(O)c1 | > 100 | > 100 | 64.3 | > 100 | 90.7 | > 100 | 22.7 | > 100 | 61.9 | > 100 | 50.3 | > 100 | – | – | 40.2 | > 100 | 30.3 | > 100 | > 100 | 51.8
27 | Cc1cc(O)cc(-c2nn(C)cc2-c2cc(N3CCOCC3)nc(-c3cccnc3)n2)c1 | 2.04 | 9.06 | 6.54 | > 100 | 7.29 | > 100 | 2.79 | 18.1 | – | – | 11.6 | 40.3 | 3.65 | > 100 | 3.17 | 20.8 | 3.32 | > 100 | 20.5 | 4.83
